From US20150309042A1, “FLUOROGENIC DENDRIMER REPORTERS AND RELATED METHODS OF USE” (The Regents of the University of Michigan, priority 2013, published 2015)

Experiments:
[1] = 'click-on' reaction with a representative alkyne-derivatized molecule, fluorescence emission measurement; type: physicochemical; details: azidocoumarin free vs. attached to the dendrimer
Protocol: The fluorogenic properties of the small molecule and dendrimer coumarin reporters were first evaluated by performing the ‘click’ reaction with a representative alkyne-derivatized molecule, 3-(4-(prop-2-yn-1-yloxy)phenyl)propionic acid at room temperature for 12 hours (Scheme 2). […] However, after attaching to the dendrimer, the absorbance of azidocoumarin has red-shifted 20 nm (λmax Ex 340 vs. 360 nm). Following ligation with the alkyne-derivatized molecule, the G5-Coumarin 3 increased its fluorescence 21-fold (FIG. 1). […] This difference in fluorescent enhancement was primarily attributable to the decrease in the background fluorescence intensity of azidocoumarin on the dendrimer reporter. The structure-property relationships are still under investigation.
Experimental Procedure of “Click-on and Probe” Reaction G5-coumarin 3 was dissolved in Cu(II) sulfate (10 mol % per COUlnarin, 1 mg/mL H20 solution) solution. 3-(4-(prop-2-yn-1-yloxy)phenyl)propanoic acid (5 per coumarin, 5 mg/mL DMSO solution) were added. The reaction mixture was incubated at room temperature for 12 h before diluted in H2O for fluorescent emission measurement. […] The excitation and emission spectra were recorded after dilution using H2O.

KB cells = experiment: detection of EdU incorporated into newly synthesized DNA of KB cells by 'click' ligation and flow cytometry; type: cell-based
Excerpt: The efficacy of the fluorogenic reporters in monitoring metabolite flux in a typical cell culture system was next evaluated. 5-ethynyl-2′-deoxyuridine (EdU), a nucleoside analogue, incorporation into newly synthesized DNA (Scheme 2), a common molecular biology technique to profile cellular proliferation, was monitored (see, e.g., Hahn, C. G.; Han, L. Y.; Rawson, N. E.; Mirza, N.; Borgmann-Winter, K.; Lenox, R. H.; Arnold, S. E. J Comp Neurol 2005, 483, 154; Salic, A.; Mitchison, T. J. P Natl Acad Sci USA 2008, 105, 2415; Limsirichaikul, S.; Niimi, A.; Fawcett, H.; Lehmann, A.; Yamashita, S.; Ogi, T. Nucleic Acids Res 2009, 37; Yamakoshi, H.; Dodo, K.; Okada, M.; Ando, J.; Palonpon, A.; Fujita, K.; Kawata, S.; Sodeoka, M. J Am Chem Soc 2011, 133, 6102). Traditionally, 5-bromo-2′-deoxyuridine (BrdU), an antibody-specific nucleoside analogue, has been used to monitor DNA synthesis but is limited by the complicated processing and signal variability (see, e.g., Declercq, E.; Descamps, J.; Balzarini, J.; Giziewicz, J.; Barr, P. J.; Robins, M. J. J Med Chem 1983, 26, 661). EdU is a DNA base modified with a terminal alkyne group replacing the methyl group in the 5 position and is readily incorporated into newly synthesized DNA during cell proliferation. […] To compare the detection efficacy of the different fluorogenic reporters, the DNA-incorporated EdU molecules were ligated with either the small molecule 3-azido-7-hydroxy coumarin or the dendrimer-coumarin reporters (G5-Coumarin 3) using ‘click’ reactions and then analyzed by flow cytometry. […] Similar to other ‘click’ reaction detection methods with traditional azide fluorescent reporters, detection of EdU incorporation into DNA with the fluorogenic dendrimer reporters retain the accuracy of the traditional assays but reduces background fluorescence greatly improving assay throughput.
EdU Labeling and Staining of Cultured Cells. […] Fluorescence signal intensities from the samples were measured using an Accuri C6 Flow Cytometer (Ann Arbor, Mich.) and data were analyzed using FlowJo 8.7 software (TreeStar).

λmax Ex [1]: 340 nm
SMILES: [N-]=[N+]=Nc1cc2ccc(O)cc2oc1=O [3-azido-7-hydroxy coumarin]
fluorescence intensity after standard wash steps (KB cells; KB cells with EdU, after standard wash steps): decreased
cell positive rate before wash steps (KB cells; KB cells with EdU, no washes): much higher degree of cell positive rate
fluorescent intensity after ligation with DNA-incorporated EdU (KB cells; KB cells, 10 μM EdU for 5 hours, reporters at 10 nM and 100 nM): increases in fluorescent intensity
